Data from ChEMBL document CHEMBL1201862, “PubChem BioAssay data set” (2004).
Active and inactive are the calls of the source.

Tests used:
[1] = Luminescence Cell-Based Dose Retest to Confirm Inhibitors of Cancer Stem Cells. [Related pubchem assays (depositor defined):AID2717, AID2721]; type: functional, Homo sapiens; settings: Homo sapiens
[2] = biological target: T1, Hepatocyte nuclear factor 4-alpha (Homo sapiens, UniProt P41235); type: functional, cell-based;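 further: biochemical luminescence-based dose-response counterscreen measuring inhibition of HNF4 dimerization, run alongside a screen for blockers of ABHD5–perilipin-5 interaction; split luciferase complementation of HNF4 fusion proteins in cell lysate measuring dimerization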
T1 sequence (P41235 whole entry): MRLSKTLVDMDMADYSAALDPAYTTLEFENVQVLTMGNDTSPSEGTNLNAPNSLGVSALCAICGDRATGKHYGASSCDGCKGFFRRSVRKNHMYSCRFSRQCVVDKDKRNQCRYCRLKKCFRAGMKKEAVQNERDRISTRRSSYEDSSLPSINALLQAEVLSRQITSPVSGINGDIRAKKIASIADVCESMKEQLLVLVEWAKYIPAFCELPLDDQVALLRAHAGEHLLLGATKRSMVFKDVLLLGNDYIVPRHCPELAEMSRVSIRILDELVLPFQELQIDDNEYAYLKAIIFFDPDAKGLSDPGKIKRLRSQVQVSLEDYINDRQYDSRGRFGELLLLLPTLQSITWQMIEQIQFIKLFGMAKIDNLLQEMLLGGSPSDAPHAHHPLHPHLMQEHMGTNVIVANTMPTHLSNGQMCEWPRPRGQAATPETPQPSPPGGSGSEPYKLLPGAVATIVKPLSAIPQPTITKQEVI

[3] = biological target: Ephrin type-A receptor 4 (Mus musculus, UniProt Q03137); assay: EphA4 ligand-binding antagonists – biochemical, colorimetric, mouse EphA4, primary screen (AID 689); type: functional
Chain of Ephrin type-A receptor 4 (Q03137 whole entry): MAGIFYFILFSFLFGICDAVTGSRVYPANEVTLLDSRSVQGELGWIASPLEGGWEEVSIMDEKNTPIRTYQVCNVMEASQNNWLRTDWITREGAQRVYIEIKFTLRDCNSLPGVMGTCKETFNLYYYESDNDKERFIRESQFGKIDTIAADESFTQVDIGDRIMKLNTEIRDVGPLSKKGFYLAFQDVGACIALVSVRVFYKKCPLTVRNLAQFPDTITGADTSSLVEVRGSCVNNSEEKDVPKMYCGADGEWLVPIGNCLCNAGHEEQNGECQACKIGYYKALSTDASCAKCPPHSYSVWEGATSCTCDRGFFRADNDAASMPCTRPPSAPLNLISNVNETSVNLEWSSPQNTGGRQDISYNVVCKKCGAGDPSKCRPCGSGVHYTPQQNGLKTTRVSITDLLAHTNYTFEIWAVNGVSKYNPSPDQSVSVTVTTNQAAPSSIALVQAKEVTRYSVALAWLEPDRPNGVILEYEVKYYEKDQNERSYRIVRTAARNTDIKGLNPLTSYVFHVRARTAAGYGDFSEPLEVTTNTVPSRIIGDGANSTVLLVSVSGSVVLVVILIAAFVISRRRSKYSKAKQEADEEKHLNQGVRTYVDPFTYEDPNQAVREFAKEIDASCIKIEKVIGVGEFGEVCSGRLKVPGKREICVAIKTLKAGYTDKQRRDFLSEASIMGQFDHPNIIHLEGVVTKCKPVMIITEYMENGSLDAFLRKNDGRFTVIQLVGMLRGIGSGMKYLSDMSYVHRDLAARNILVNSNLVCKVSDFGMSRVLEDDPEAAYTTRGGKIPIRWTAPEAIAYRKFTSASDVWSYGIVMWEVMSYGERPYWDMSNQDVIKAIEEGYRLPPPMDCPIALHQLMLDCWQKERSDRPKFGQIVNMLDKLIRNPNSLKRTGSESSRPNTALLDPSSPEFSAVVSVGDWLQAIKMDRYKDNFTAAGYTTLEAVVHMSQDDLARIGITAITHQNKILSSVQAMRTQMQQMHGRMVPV

[4] = biological target: Cytochrome P450 3A4 (Homo sapiens, UniProt P08684);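 further: CYP3A4 tested as one member of a cytochrome P450 panel screen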
Chain of Cytochrome P450 3A4 (P08684 whole entry): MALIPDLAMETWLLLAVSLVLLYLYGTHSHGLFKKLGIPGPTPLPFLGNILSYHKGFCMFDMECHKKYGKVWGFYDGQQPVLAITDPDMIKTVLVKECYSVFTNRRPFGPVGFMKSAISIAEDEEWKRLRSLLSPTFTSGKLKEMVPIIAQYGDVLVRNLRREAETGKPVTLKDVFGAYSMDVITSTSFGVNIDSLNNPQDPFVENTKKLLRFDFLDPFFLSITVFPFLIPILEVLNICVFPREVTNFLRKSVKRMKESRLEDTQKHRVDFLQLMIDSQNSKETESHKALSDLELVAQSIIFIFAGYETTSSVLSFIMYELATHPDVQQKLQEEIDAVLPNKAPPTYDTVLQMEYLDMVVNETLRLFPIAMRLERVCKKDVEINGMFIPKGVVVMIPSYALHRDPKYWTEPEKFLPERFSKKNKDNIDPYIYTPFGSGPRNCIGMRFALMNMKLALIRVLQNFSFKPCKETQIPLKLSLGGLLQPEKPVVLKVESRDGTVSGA

[5] = biological target: Voltage-gated inwardly rectifying potassium channel KCNH2 (Homo sapiens, UniProt Q12809); assay: concentration-dependent hERG rescue from blockers – cell-based, thallium flux, dose response (AID 2121); type: ADME
Chain of Voltage-gated inwardly rectifying potassium channel KCNH2 (Q12809 whole entry): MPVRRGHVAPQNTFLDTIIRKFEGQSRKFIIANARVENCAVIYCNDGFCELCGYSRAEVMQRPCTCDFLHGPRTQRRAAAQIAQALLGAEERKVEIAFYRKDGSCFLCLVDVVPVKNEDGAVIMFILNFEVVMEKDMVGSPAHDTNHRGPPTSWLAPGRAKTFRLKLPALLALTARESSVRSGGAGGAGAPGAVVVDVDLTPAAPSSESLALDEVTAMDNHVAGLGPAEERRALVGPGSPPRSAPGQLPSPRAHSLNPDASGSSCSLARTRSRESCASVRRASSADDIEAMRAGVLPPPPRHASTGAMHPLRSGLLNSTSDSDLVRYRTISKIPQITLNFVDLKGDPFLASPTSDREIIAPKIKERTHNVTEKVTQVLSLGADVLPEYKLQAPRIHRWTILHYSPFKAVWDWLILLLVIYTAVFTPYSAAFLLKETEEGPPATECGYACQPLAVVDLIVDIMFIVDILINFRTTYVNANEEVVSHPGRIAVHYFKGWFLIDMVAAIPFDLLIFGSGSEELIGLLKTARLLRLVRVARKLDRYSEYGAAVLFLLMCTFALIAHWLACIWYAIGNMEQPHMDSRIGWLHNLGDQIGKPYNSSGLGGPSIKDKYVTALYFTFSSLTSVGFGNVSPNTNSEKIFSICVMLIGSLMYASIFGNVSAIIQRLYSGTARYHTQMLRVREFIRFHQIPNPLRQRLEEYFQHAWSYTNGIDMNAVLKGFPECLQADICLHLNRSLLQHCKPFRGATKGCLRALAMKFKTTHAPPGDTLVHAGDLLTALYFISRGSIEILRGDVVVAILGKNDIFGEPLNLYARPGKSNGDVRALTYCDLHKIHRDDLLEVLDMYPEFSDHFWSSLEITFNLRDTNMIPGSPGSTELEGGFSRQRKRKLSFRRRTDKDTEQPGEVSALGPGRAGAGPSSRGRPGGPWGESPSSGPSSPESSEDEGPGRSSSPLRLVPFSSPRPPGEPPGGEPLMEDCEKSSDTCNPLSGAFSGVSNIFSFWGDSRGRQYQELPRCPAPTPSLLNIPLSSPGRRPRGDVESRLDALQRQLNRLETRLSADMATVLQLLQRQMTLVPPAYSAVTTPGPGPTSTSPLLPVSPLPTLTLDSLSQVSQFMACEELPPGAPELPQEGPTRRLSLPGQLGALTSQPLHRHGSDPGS

[6] = biological target: T2, Histone-lysine N-methyltransferase NSD2 (Homo sapiens, UniProt O96028); type: biochemical
T2 sequence (O96028 whole entry): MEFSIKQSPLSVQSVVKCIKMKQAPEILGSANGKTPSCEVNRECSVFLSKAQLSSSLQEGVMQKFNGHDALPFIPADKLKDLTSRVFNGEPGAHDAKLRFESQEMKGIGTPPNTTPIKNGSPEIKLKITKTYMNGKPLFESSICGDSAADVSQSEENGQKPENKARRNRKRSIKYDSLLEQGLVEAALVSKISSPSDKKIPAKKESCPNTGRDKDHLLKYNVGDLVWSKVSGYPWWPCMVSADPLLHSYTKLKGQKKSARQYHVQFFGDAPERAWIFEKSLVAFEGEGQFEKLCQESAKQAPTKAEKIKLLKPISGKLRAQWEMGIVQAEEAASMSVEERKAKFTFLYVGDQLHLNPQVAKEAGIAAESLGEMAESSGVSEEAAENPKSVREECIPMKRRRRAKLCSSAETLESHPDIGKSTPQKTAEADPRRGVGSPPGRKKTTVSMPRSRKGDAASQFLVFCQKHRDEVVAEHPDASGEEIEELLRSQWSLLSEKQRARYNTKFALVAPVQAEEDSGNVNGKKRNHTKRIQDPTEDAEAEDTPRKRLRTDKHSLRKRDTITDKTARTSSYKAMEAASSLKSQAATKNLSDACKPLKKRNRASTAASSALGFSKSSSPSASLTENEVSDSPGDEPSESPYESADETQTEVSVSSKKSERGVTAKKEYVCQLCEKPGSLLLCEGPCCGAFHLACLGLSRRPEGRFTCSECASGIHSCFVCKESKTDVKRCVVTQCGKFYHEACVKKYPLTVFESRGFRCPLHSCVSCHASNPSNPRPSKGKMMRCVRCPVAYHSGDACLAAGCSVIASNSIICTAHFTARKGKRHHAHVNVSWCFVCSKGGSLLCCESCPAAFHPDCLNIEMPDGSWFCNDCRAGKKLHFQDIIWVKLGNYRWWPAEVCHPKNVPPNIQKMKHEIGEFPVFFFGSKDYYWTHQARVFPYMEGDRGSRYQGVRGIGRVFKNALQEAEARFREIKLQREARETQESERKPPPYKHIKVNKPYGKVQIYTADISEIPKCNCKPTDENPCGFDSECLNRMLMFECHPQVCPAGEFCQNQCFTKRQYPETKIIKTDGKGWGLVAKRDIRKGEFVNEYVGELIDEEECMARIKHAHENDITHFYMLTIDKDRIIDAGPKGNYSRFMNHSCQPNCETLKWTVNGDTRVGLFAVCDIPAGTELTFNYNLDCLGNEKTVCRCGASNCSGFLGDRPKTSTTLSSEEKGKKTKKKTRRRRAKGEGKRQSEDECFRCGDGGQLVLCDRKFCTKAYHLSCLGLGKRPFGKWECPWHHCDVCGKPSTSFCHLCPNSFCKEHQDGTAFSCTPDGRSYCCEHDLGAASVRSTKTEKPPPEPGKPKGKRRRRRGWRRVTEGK

[7] = biological target: T3, Mannose-6-phosphate isomerase (Homo sapiens, UniProt P34949); assay: MPI inhibition at elevated mannose 6-phosphate – biochemical, fluorescence intensity, high mannose 6-phosphate, primary screen (AID 1220)
T3 sequence (P34949 whole entry): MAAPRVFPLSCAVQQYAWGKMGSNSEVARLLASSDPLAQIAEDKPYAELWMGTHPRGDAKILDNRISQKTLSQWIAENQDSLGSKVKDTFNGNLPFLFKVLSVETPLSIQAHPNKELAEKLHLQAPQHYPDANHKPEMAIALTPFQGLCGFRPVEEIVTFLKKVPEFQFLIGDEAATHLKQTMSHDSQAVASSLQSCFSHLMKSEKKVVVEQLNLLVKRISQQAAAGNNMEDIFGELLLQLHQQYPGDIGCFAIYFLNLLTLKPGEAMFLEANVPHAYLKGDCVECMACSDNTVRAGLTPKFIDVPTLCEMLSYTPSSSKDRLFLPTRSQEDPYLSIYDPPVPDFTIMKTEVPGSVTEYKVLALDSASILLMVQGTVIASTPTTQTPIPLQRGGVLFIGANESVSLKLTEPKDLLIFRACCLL

[8] = Trypanosoma cruzi growth suppression in host cells – NIH3T3 host cells, beta-gal luminescence, confirmation (AID 2044); type: functional, cell-based;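 further: intracellular parasites grown in NIH/3T3 mouse fibroblasts as host cells; luminescent beta-galactosidase reporter signal from transgenic T. cruzi replicating inside host cells; inhibitors lower the luminescence signal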
[9] = NIH3T3 cell viability loss – ATP luminescence, mouse fibroblasts, counter-screen, dose response (AID 2010); type: functional, cell-based;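 further: cells exposed to compound for about 90 hours before reading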
[10] = biological target: Estrogen receptor beta (Homo sapiens, UniProt Q92731);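 further: recombinant ER-beta bound to coactivator SRC1 peptide in presence of estradiol agonist; inhibitors block coactivator peptide binding and lower the FRET signal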
Chain of Estrogen receptor beta (Q92731 whole entry): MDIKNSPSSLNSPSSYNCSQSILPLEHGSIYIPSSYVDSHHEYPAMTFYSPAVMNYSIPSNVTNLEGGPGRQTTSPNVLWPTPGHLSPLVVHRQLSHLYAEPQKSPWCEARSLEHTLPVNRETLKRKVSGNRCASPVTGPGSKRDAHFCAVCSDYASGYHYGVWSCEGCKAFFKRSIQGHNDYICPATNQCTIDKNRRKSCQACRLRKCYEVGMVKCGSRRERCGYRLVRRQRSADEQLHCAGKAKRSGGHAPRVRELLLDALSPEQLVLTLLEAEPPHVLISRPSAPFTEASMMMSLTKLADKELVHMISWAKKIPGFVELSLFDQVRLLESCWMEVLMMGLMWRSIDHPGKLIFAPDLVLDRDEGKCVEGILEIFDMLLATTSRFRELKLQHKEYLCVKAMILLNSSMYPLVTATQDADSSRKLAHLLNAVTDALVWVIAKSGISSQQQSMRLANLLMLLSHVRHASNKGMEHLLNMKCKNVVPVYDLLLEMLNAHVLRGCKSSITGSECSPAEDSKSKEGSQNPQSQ

[11] = viability loss in THP-1 monocytes – THP-1 cells, cytotoxicity control for Vif-APOBEC3G degradation inhibitor project, dose response (AID 1117359); type: functional; settings: THP-1
[12] = biological target: T4, Dual specificity protein phosphatase 3 (Homo sapiens, UniProt P51452); assay: VHR1 phosphatase inhibitors, primary screen, biochemical, absorbance, uHTS (AID 1654)
T4 sequence (P51452 whole entry): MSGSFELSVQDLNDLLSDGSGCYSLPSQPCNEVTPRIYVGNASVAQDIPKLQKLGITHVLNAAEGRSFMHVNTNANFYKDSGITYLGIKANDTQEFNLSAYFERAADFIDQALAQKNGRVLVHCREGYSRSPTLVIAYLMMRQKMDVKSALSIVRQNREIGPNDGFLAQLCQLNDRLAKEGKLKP

[13] = biological target: Induced myeloid leukemia cell differentiation protein Mcl-1 (Homo sapiens, UniProt Q07820); type: functional
Chain of Induced myeloid leukemia cell differentiation protein Mcl-1 (Q07820 whole entry): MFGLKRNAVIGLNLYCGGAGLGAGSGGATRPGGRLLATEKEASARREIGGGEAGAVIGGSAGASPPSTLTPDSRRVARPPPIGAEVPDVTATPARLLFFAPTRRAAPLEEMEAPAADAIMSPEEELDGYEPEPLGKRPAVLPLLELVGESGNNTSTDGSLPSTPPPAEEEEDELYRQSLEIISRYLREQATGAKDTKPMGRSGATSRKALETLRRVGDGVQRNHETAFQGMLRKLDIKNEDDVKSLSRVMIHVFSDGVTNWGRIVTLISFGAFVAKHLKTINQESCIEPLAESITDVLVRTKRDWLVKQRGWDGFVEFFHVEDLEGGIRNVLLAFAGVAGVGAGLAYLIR

[14] = biological target: T4, Dual specificity protein phosphatase 3; assay: VHR1 phosphatase inhibitors, biochemical (AID 1878)
[15] = biological target: T5, Dual specificity protein phosphatase 6 (Rattus norvegicus, UniProt Q64346); assay: inhibition of rat DUSP6 enzyme activity – biochemical, in vitro, primary screen (AID 425)
T5 sequence (Q64346 whole entry): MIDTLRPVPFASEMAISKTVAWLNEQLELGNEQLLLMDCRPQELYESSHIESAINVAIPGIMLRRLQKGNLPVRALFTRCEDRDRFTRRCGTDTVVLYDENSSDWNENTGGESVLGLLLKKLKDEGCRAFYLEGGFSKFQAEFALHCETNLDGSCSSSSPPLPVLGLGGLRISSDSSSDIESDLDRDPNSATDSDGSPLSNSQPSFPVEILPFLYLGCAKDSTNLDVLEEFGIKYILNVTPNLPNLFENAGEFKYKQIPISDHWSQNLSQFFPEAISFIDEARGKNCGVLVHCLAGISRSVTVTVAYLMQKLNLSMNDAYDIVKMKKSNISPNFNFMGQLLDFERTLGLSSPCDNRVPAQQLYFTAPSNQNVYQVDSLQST

[16] = biological target: T6, High affinity choline transporter 1 (Homo sapiens, UniProt Q9GZV3); assay: human choline transporter blockers, potency – cell-based, 5-point CRC, membrane potential dye, dose response (AID 504840); type: functional
T6 sequence (Q9GZV3 whole entry): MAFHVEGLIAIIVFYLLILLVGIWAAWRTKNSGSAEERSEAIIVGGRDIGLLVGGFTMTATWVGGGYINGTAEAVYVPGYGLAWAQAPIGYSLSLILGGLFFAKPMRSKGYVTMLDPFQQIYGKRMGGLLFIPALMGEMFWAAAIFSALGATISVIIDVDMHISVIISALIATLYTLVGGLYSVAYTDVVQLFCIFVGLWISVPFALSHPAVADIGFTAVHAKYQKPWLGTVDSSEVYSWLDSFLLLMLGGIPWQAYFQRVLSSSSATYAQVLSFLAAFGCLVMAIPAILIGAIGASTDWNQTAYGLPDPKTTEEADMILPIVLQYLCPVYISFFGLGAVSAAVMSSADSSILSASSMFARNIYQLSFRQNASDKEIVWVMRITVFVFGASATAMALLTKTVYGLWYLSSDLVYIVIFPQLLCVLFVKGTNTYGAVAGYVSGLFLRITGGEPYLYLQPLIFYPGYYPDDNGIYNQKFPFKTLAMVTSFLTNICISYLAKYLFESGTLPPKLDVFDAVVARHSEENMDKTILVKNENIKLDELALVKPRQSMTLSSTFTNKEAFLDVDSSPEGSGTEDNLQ

[17] = biological target: T7, Estrogen receptor (Homo sapiens, UniProt P03372);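 further: potency for inhibiting coactivator peptide recruitment to the receptor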
T7 sequence (P03372 whole entry): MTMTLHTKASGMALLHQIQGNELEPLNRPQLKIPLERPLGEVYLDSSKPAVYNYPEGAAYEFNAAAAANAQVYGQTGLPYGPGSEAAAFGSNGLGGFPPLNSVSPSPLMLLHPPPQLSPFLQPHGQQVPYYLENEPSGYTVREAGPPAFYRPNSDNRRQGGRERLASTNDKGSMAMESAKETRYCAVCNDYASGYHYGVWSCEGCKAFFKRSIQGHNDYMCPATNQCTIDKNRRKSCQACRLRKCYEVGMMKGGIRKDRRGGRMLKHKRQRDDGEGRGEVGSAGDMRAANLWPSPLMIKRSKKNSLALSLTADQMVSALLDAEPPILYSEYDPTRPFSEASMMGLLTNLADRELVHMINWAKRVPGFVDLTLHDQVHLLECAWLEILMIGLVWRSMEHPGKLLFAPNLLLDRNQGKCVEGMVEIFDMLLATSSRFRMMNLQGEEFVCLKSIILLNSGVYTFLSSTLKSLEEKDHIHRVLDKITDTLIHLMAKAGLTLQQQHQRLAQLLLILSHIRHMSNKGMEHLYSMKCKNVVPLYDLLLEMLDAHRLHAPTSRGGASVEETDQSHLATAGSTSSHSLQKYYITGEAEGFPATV

CCOC(=O)c1c(NC(C)=O)sc2c1CCC(C=O)=C2Sc1ccccc1
AC50 [1]: 3.85 µM (active)
IC50 [2]: 28.1 µM (inactive)
IC50 [3]: 2.26 µM (active)

O=C(NC(=S)Nc1cccc(Cl)c1N1CCCCC1)c1ccco1
AC50 [4]: 15.8 µM (inconclusive)
AC50 [1]: 4.12 µM (active)
EC50 [5]: 0.46 µM (active)

CCN(CC)CCCN(Cc1cc2cc3c(cc2nc1O)OCCO3)C(=O)Nc1ccccc1
AC50 [6]: > 20 µM (inactive)
IC50 [3]: 13.3 µM (active)

C=C1N(C)c2cc([N+](=O)[O-])c(N)cc2C1(C)C
IC50 [7]: 11.5 µM (active)
EC50 [8]: 5.96 µM (active)
EC50 [9]: > 60 µM (not active)

CC1(C)CCCC2=C1CC1C(=O)N(O)C(=O)C1C2 (stereo unspecified)
IC50 [10]: > 50 µM (not active)

COC(=O)c1ccc(O)c2nc3c(C=O)c(O)cc(O)c3nc12 [LOMOFUNGIN]
CC50 [11]: 8.31 µM (active)
IC50 [12]: 2.06 µM (active)
IC50 [13]: 3.76 µM (active)
IC50 [14]: < 1.23 µM (inactive)
IC50 [15]: 48.2 µM (active)

CC1Cc2ccccc2N1C(=O)CSc1nnc(-c2ccc(S(=O)(=O)N3CCCC3)cc2)n1C (stereo unspecified)
IC50 [7]: > 50 µM (not active)

Cc1sc2ncnc(NCc3ccco3)c2c1C
IC50 [16]: 13.2 µM (active)
IC50 [10]: 29.4 µM (active)
IC50 [17]: 35.3 µM (not active)
